The source of these data is EP0503044B1, “PEPTIDE COMPOUNDS OF LAEVOROTATORY AMINO ACIDS AND RING MOLECULES, AND THERAPEUTICAL APPLICATIONS THEREOF” (POLIFARMA S.p.A., priority 1990, dated 1992).

Square brackets hold non-standard residues; d marks the D form. Peptide text beside a SMILES is read from it. * marks the point of attachment. Trp(1-Me) = Cn1cc(C[C@H](N)C(=O)O)c2ccccc21; Hyp = O=C(O)[CH]1C[CH](O)CN1; Phg = N[CH](C(=O)O)c1ccccc1; pGlu = O=C1CC[CH](C(=O)O)N1; Pip = O=C(O)[C@@H]1CCCCN1; ΔPro = O=C(O)[CH]1C=CCN1; Cbz = O=C(OCc1ccccc1)*; Aze = O=C(O)[CH]1CCN1; Boc = CC(C)(C)OC(=O)*

The test system of assay [1] is spontaneously hyper-tensive rats (SHR from the company Charles River). In words: Pressure test in awake spontaneously hypertensive rats (anti-hypertensive activity). Type of assay: in vivo. The source says: (§1) In the following examples will first of all be given the data necessary for synthesis of the compounds according to the present invention. There will then be given data regarding their pharmacological activity, using methods widely known to be valid. In particular, for the pressure tests, spontaneously hyper-tensive rats were used (SHR from the company Charles River), operated in such a way as to enable pressure to be read even when the animals were awake and free to move. In order to evaluate the analgesic activity, the Hot Plate and Writhing Tests were used. For the anti-inflammatory effect the test of carraginine edema was used. Finally, for immuno-modulating activity the evaluation of the stimulation of growth of human lymphocites in culture was resorted to, after the addition of specific antigens.

The nature of assay [2]: Analgesic activity, test not given (Hot Plate and Writhing Tests used). It is filed as in vivo. The note with it: test and dose not stated.
Excerpt: as §1
On the technique in general: An intraperitoneal irritant provokes the stretching counted in writhing tests.

In assay [3] the test system is carraginine edema. In words: Carrageenin edema test (anti-inflammatory effect). Type of assay: in vivo. The settings on record: dose not stated.
Excerpt: as §1
(In the carrageenan paw model, swelling and tenderness develop within hours.)

Assay [4] deals with human lymphocites in culture. Description: Stimulation of growth of human lymphocytes in culture after addition of specific antigens (immuno-modulating activity). It is filed as cell-based.
Excerpt: as §1, with “antigens. The results obtained for each synthesized compound are given at the end of each example.” for “antigens.”

Assay [5] is described as follows: Hot Plate test (analgesic activity). It is filed as in vivo.
Excerpt: as §1, with “antigens. The results obtained for each synthesized compound are given at the end of each example.” for “antigens.”

Assay [6] in a line: Writhing test (analgesic activity). Type of assay: in vivo. The note with it: dose not stated.
Excerpt: as §1, with “antigens. The results obtained for each synthesized compound are given at the end of each example.” for “antigens.”

Consider “Z-(S)-Dhi-(L)-Leu-(L)-TrpOMe [compound 14]”, for which the anti-hypertensive effect entry in assay [1] (dose not stated) is listed as “bland reduction”. The analgesic effect entry in assay [2] is recorded as “moderate”.

Consider (L)-Pyr-Gly-(L)-CypOMe [compound 24], for which, in assay [1] (dose not stated), the anti-hypertensive effect entry is reported as “bland”. Moreover, the anti-inflammatory effect result in assay [3] was “moderate”.

Consider `COC(=O)[C@H](Cc1cn(C)c2ccccc12)NC(=O)[C@H](C)NC(=O)[C@@H]1CCCN1C(=O)OCc1ccccc1` [compound 7, Z-(L)-Pro-(L)-Ala-(1)-Me-(L)-TrpOMe] (Cbz-Pro-Ala-[Trp(1-Me)]-OMe), for which, in assay [1] (2 mg/Kg i.v.), the anti-hypertensive effect entry is “good” and the reduction in pressure was 10%.

Regarding “Z-(L)-Pro-(L)-Ala-(L)-OmtOMe [compound 4]”, in assay [1] (8 mg/Kg i.v.), the anti-hypertensive effect entry is “bland”. For the same compound, in assay [4], the immune response entry is reported as “slightly increased”.

Consider Z-(L)-Pro-(L)-Ala-CytH [compound 3], for which, in assay [1] (8 mg/Kg i.p.), the anti-hypertensive effect entry was “bland”.

Turning to “Z-(L)-Pyr-(L)-Leu-(S)-CypOMe [compound 21]”, the anti-hypertensive effect result in assay [1] (dose not stated) was “slight”. Besides, in assay [4], the immune response result is reported as “good”.

On to Z-(L)-Pro-(L)-Ala-(L)-Pme [compound 6], for which the anti-hypertensive effect result in assay [1] (2 mg/Kg i.v.) is on record as “good”. Also, the pressure reduced result in assay [1] (2 mg/Kg i.v., after one hour) is given as “approximately 25%”. Further, the “extension of time in the Hot Plate test” value in assay [5] (dose not stated) was found to be 25%. Besides, the “reduction of contorsions during the Writhing test” value in assay [6] turned out to be 70%. Further, the anti-inflammatory effect result in assay [3] is “rather weak”. Also, in assay [4], the immune response result was “more consistent”. Further, the analgesic effect result in assay [2] is “good”.

As for (L)-Pyr-Gly-(L)-Pme [compound 23], in assay [1] (8 mg/Kg i.p.), the anti-hypertensive effect entry is “good”. In assay [6], the “reduction of contorsions during the Writhing test” value was 80%. In addition, the immune response entry in assay [4] is “good”. In addition, in assay [2], the analgesic effect result is given as “excellent”.

As for `COC(=O)C(Cc1c[nH]c2ccccc12)NC(=O)C(CC(C)C)NC(=O)C1CCCN1C.Cl` (stereo not shown) [compound 10, N-Me-(L)-Pro-(L)-Leu-(L)-TrpOMe.HCl], in assay [1] (2 mg/Kg i.v.), the anti-hypertensive effect result is recorded as “excellent” and the reduction in pressure is 15-20%. The immune response entry in assay [4] was “slightly increased”. The analgesic effect entry in assay [2] is recorded as “low”.

For the compound “Boc-(L)-Mep-(L)-Leu-(L)-TrpOMe [compound 12]”, the anti-hypertensive effect entry in assay [1] (dose not stated) is reported as “bland”. Besides, in assay [3], the anti-inflammatory effect entry is given as “reduction of the inflammatory response”.

As for `COC(=O)[C@H](Cc1c[nH]c2ccccc12)NC(=O)[C@H](CC(C)C)NC(=O)c1ccc[nH]1` [compound 9, 2-Pyrrolyl-(L)-Leu-(L)-TrpOMe], in assay [1] (dose not stated), the anti-hypertensive effect entry was “slight”. Also, the anti-inflammatory effect entry in assay [3] is “bland reduction”.

Turning to `COC(=O)C(Cc1c[nH]c2ccccc12)NC(=O)C(CC(C)C)NC(=O)C1CCN1C(=O)OCc1ccccc1` [compound 17, z-(S)-Aze-(L)-Leu-(L)-TrpOMe] (Cbz-[Aze]-Leu-Trp-OMe; configuration not given here), in assay [1] (dose not stated), the anti-hypertensive effect entry is “slight”. The anti-inflammatory effect entry in assay [3] is recorded as “bland”.

As to “Z-(L)-Pyr-(L)-Leu-(S)-CytOMe [compound 20]”, in assay [1] (dose not stated), the anti-hypertensive effect result was “bland”. For the same compound, the anti-inflammatory effect result in assay [3] is listed as “fair”.

`COC(=O)C(Cc1c[nH]c2ccccc12)NC(=O)C(CC(C)C)NC(=O)C1CC(O)CN1C(=O)OCc1ccccc1` (stereo not drawn) [compound 16, Z-(L)-Hyp-(L)-Leu-(L)-TrpOMe] (Cbz-[Hyp]-Leu-Trp-OMe; configuration not given here): the anti-hypertensive effect result in assay [1] (dose not stated) is recorded as “bland”. Besides, the analgesic effect entry in assay [2] is listed as “modest”.

Turning to `COC(=O)C(NC(=O)CNC(=O)C1CCC(=O)N1)c1ccccc1` (stereo not drawn) [compound 22, (L)-Pyr-Gly-(L)-PhgOMe] ([pGlu]-Gly-[Phg]-OMe; configuration not given here), in assay [1] (4 mg/Kg i.p.), the anti-hypertensive effect entry was “excellent” and the pressure values reduced is reported as 20%. Also, in assay [3], the anti-inflammatory effect entry is on record as “very good” and the reduction of edema was 70%. Also, the immune response entry in assay [4] is “increase”.

In the case of “(L)-Pyr-(L)-Leu-(S)-CytOMe [compound 25]”, the anti-hypertensive effect result in assay [1] (dose not stated) is on record as “bland”. Further, the analgesic effect entry in assay [2] is “weak”.

As for `COC(=O)[C@@H](NC(=O)[C@H](C)NC(=O)[C@@H]1CCCN1C(=O)OCc1ccccc1)c1ccccc1` [compound 5, Z-(L)-Pro(L)-Ala-(L)-PhgOMe] (Cbz-Pro-Ala-[Phg]-OMe), the anti-hypertensive effect entry in assay [1] (8 mg/Kg i.p.) is listed as “bland”. The “analgesic effect using the Hot Plate test” value in assay [5] (dose not stated) was “moderate”.

As to `COC(=O)C(Cc1c[nH]c2ccccc12)NC(=O)C(CC(C)C)NC(=O)C1C=CCN1C(=O)OC(C)(C)C` (stereo not drawn) [compound 13, Boc-\/^3,4-(L)-Pro-(L)-Leu-(L)-TrpOMe] (Boc-[ΔPro]-Leu-Trp-OMe; configuration not given here), the anti-hypertensive effect entry in assay [1] (dose not stated) is “slightly anti-hypertensive”. Further, the immune response result in assay [4] is reported as “slightly increases”.

Z-(L)-Pro-(L)-Ala-TrpH [compound 2]: the anti-hypertensive effect entry in assay [1] (dose not stated) is given as “comparable to that of compound 1”. The immune response result in assay [4] is reported as “increased, but to a lesser extent than in the previous compound”.

As to `COC(=O)[C@H](Cc1c[nH]c2ccccc12)NC(=O)[C@H](CC(C)C)NC(=O)[C@@H]1CCCCN1C(=O)OCc1ccccc1` [compound 15, Z-(L)-Pip-(L)-Leu-(L)-TrpOMe] (Cbz-[Pip]-Leu-Trp-OMe), in assay [1] (2 mg/Kg i.v.), the anti-hypertensive effect result is listed as “good” and the reduction in pressure entry was “up to 30%”. In assay [3], the anti-inflammatory effect result is reported as “consistent”. Moreover, the immune response entry in assay [4] is given as “slight increase”.

As to `COC(=O)[C@H](Cc1c[nH]c2ccccc12)NC(=O)[C@H](CC(C)C)NC(=O)c1ccco1` [compound 8, 2-Fur-(L)-Leu-(L)-TrpOMe], the anti-hypertensive effect result in assay [1] (4 mg/Kg i.v.) was “slight”. Also, the anti-inflammatory effect result in assay [3] is recorded as “slight”. The immune response entry in assay [4] is “strongly stimulated even with small doses of peptide”.

Take “(S)-Tfc-(L)-Leu-(L)-TrpOMe [compound 18]”: in assay [1] (dose not stated), the anti-hypertensive effect entry was “bland”. Besides, the immune response entry in assay [4] is “moderate”.

Consider “Z-(L)-Pro-(L)-Ala-(L)-CypOMe [compound 11]”, for which the anti-hypertensive effect result in assay [1] (dose not stated) is “slight”. The anti-inflammatory effect entry in assay [3] is reported as “moderate”.

On to “Z-(L)-Pyr-(L)-Leu-(L)-TrpOMe [compound 19]”, for which the anti-hypertensive effect entry in assay [1] (dose not stated) is “slight”. Moreover, the anti-inflammatory effect result in assay [3] is given as “fair”.

“Z-(L)-Pro-(L)-Ala-(S)-CytOEt [compound 1]”: in assay [1] (4 mg/Kg i.p.), the anti-hypertensive effect entry is “good”, the “duration of the anti-hypertensive effect” value is “maintained for a number of hours” and the pressure values reduced was 15-20%. For the same compound, the “pain killing effect under the Hot Plate test” value in assay [5] (4 mg/Kg i.p.) is reported as “slight”. For the same compound, the “response of lymphocytes stimulated by phytohemoagglutinine (PHA)” value in assay [4] (PHA stimulation) is recorded as “increases”.
